The record followed here is PubChem BioAssay (NCI).

Among the test systems are COLO 205 colon; HL-60(TB) leukemia; SK-MEL-2 melanoma; KM12 colon; PC-3 prostate; CAKI-1 renal; OVCAR-4 ovarian; SR leukemia; SF-539 CNS; NCI-H522 lung.
What all share (experiment): inhibition of tumour cell growth, NCI panel, 48 h

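All cell lines were grown in 96-well plates and treated with compound for 48 hours. TGI is the concentration that stops growth completely.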

`N#CC1=C(N)N(/N=C/c2ccccc2)C(c2ccccc2)C1(C#N)C#N` (stereo not given): the TGI is 4.82 µM in the assay on COLO 205 colon; 5.47 µM in the assay on HL-60(TB) leukemia; 34.9 µM in the assay on SK-MEL-2 melanoma; greater than 58.2 µM in the assay with KM12 colon; 34.5 µM with PC-3 prostate; 13 µM in the assay on CAKI-1 renal. Also, the TGI in the assay on OVCAR-4 ovarian was found to be 28.5 µM; in the assay with SR leukemia, 8.5 µM; in the assay on SF-539 CNS, 33.9 µM; in the assay on NCI-H522 lung it was 16.6 µM.

For `COC(=O)c1c(CC(Cc2ccc3c(c2)CCCC3)C(=O)O)ccc2c1CCCC2` (stereo not given), the TGI in the assay on COLO 205 colon is 32.9 µM; with HL-60(TB) leukemia, 46.5 µM; in the assay on SK-MEL-2 melanoma it was 39.5 µM; in the assay with KM12 colon it was 77.2 µM; with PC-3 prostate, greater than 100 µM; in the assay with CAKI-1 renal, greater than 100 µM. The TGI in the assay on OVCAR-4 ovarian is greater than 100 µM; in the assay with SR leukemia, 91.6 µM; in the assay with SF-539 CNS, 44.9 µM; in the assay on NCI-H522 lung, 34.1 µM.

Take `O=C(Nc1cccc(F)c1)c1cc2ccc(O)cc2oc1=Nc1cccc(F)c1`: the TGI is greater than 100 µM in the assay with COLO 205 colon; 10.1 µM in the assay on HL-60(TB) leukemia; greater than 100 µM in the assay on SK-MEL-2 melanoma; greater than 100 µM in the assay with KM12 colon; greater than 100 µM with PC-3 prostate; greater than 100 µM in the assay on CAKI-1 renal. Also, the TGI is greater than 100 µM in the assay on OVCAR-4 ovarian, greater than 100 µM in the assay on SR leukemia, greater than 100 µM in the assay on SF-539 CNS and 13 µM in the assay with NCI-H522 lung.

On to `N#[N+]c1c([O-])c2ccccc2c2ccccc12`, for which the TGI in the assay with COLO 205 colon was greater than 100 µM; in the assay on HL-60(TB) leukemia, greater than 100 µM; in the assay with SK-MEL-2 melanoma, 93.4 µM; with KM12 colon it was greater than 100 µM; with PC-3 prostate it was greater than 100 µM; in the assay on CAKI-1 renal, greater than 100 µM. For the same molecule, the TGI with OVCAR-4 ovarian is greater than 100 µM; with SR leukemia, greater than 100 µM; with SF-539 CNS it was 91 µM; in the assay with NCI-H522 lung, 85 µM.

In the case of `COc1ccc2c(O)c(S(=O)(=O)c3ccc(C)cc3)c(=O)oc2c1OC`, the TGI in the assay with COLO 205 colon, with HL-60(TB) leukemia, with SK-MEL-2 melanoma, with KM12 colon, with PC-3 prostate and in the assay with CAKI-1 renal was greater than 100 µM each time. In addition, the TGI in the assay with OVCAR-4 ovarian, with SR leukemia, with SF-539 CNS and with NCI-H522 lung was greater than 100 µM in each case.

As to `Cc1ccc(-c2c(-c3ccccc3)[nH]c(C)c2C(=O)ONC(=O)c2ccccc2)cc1`, the TGI was determined as 25.7 µM with COLO 205 colon; 2.02 µM in the assay on HL-60(TB) leukemia; 16.2 µM with SK-MEL-2 melanoma; 26.4 µM in the assay with KM12 colon; 18.7 µM in the assay on PC-3 prostate; 5.48 µM in the assay with CAKI-1 renal. Besides, the TGI in the assay on OVCAR-4 ovarian was found to be 9.48 µM; in the assay with SR leukemia it was 5.36 µM; with SF-539 CNS, 8.06 µM; in the assay on NCI-H522 lung, 6.48 µM.

For the molecule `Cc1cccc2oc3c(c(=O)c12)CC(O)C(C)(C)O3` (stereo not given), the TGI in the assay with COLO 205 colon is greater than 100 µM; with HL-60(TB) leukemia, 48.3 µM; in the assay with SK-MEL-2 melanoma it was greater than 100 µM; in the assay on KM12 colon, greater than 100 µM; in the assay on PC-3 prostate, greater than 100 µM; in the assay on CAKI-1 renal it was greater than 100 µM. The TGI was greater than 100 µM in the assay on OVCAR-4 ovarian, greater than 100 µM with SR leukemia, greater than 100 µM in the assay on SF-539 CNS and 87.5 µM in the assay with NCI-H522 lung.

As for `O=C(c1ccccc1)N1C(=O)N(c2ccccc2)C(=Nc2ccccc2)C1=Nc1ccccc1`, the TGI in the assay with COLO 205 colon, in the assay with HL-60(TB) leukemia, in the assay with SK-MEL-2 melanoma, in the assay with KM12 colon, in the assay on PC-3 prostate and in the assay on CAKI-1 renal was greater than 100 µM in each case. In addition, the TGI in the assay with OVCAR-4 ovarian, in the assay with SR leukemia, with SF-539 CNS and in the assay on NCI-H522 lung was greater than 100 µM throughout.

With `Cc1ccc(S(=O)(=O)CNC(=O)C(O)(O)C(F)(F)F)cc1`, the TGI in the assay on COLO 205 colon, in the assay with HL-60(TB) leukemia, in the assay with SK-MEL-2 melanoma, in the assay with KM12 colon, in the assay on PC-3 prostate and in the assay with CAKI-1 renal was greater than 100 µM throughout. For the same molecule, the TGI with OVCAR-4 ovarian, with SR leukemia, in the assay on SF-539 CNS and in the assay on NCI-H522 lung was greater than 100 µM throughout.

Regarding `N=c1oc2ccccc2cc1-c1nc2ccccc2[nH]1`, the TGI in the assay on COLO 205 colon was greater than 100 µM; in the assay with HL-60(TB) leukemia, 87 µM; with SK-MEL-2 melanoma, greater than 100 µM; in the assay with KM12 colon it was greater than 100 µM; in the assay on PC-3 prostate it was greater than 100 µM; in the assay on CAKI-1 renal it was greater than 100 µM. Further, the TGI with OVCAR-4 ovarian was greater than 100 µM; in the assay on SR leukemia it was greater than 100 µM; in the assay on SF-539 CNS, greater than 100 µM; with NCI-H522 lung, 4.57 µM.

For the molecule `O=[N+]([O-])C(/C(Cl)=C(\Cl)Br)=C(/Cl)SCc1ccccc1`, the TGI came to 4.86 µM with COLO 205 colon; 2.18 µM in the assay with HL-60(TB) leukemia; 18.1 µM in the assay with SK-MEL-2 melanoma; 30 µM in the assay on KM12 colon; 14.3 µM in the assay with PC-3 prostate; 3.78 µM with CAKI-1 renal. Besides, the TGI amounted to 11.4 µM in the assay on OVCAR-4 ovarian, 13.4 µM in the assay with SR leukemia, 25.5 µM with SF-539 CNS and 4.79 µM in the assay with NCI-H522 lung.

In the case of `CC(C)=NOC(=O)CNC(=O)C(Cc1ccccc1)NC(=O)C(C)NC(=O)OC(C)(C)C` (stereo not given), the TGI in the assay on COLO 205 colon, in the assay on HL-60(TB) leukemia, in the assay on SK-MEL-2 melanoma, in the assay on KM12 colon, in the assay with PC-3 prostate and with CAKI-1 renal was greater than 100 µM each time. The TGI in the assay on OVCAR-4 ovarian, in the assay with SR leukemia, with SF-539 CNS and in the assay on NCI-H522 lung was greater than 100 µM throughout.
